Laboratory results taken from paper PMC9929232, “On-demand male contraception via acute inhibition of soluble adenylyl cyclase” (Nature Communications, 2023).

How the values were obtained:
[1] = test system: testis, epididymis, kidneys, eyes, liver, spleen, pancreas; details: mouse, in vivo
Method: (§1) At defined time points (15 min to 24 hours post-injection), 10 μl tail blood was progressively collected from the same males, mixed with 20 μl 15 mM EDTA, frozen in liquid nitrogen, and stored at −80 °C until analysis. Liver, kidney, eye, testis, caput and cauda epididymis, and seminal vesicle were collected, weighed, and homogenized in a threefold volume of 1:1 EtOH/H2O (v/v). […] Mice anesthetized with ketamine/xylazine were shaved and residual hair was removed with hair removal cream. A small incision was made with a scalpel, a hemostat was used to create a pump-size pocket under the skin, and the pump was inserted with the pump opening facing away from the incision. After the wound was closed, mice were treated with meloxicam for pain relief. For 7 or 42 days post-surgery, tail blood was collected at regular intervals.
Blinded histopathological evaluation of indicated organs (testis, epididymis, kidneys, eyes, liver, spleen, and pancreas) was performed by a board-certified comparative pathologist at the WCM Laboratory of Comparative Pathology. […] Organs were fixed in 10% neutral buffered formalin followed by embedding into paraffin. Sections were cut followed by staining with hematoxylin and eosin (H&E) for microscopic evaluation.

[2] = TDI-11155 blood concentration during osmotic minipump delivery; format: in vivo, mouse
Method: as §1

[3] = molecular target: T1, sAC-overexpressing rat 4-4 cells (Rattus norvegicus, UniProt Q9Z286); set-up: method as in PMID 36246105; details: read-out: IC50 in cellular assays; cited from earlier work
T1 construct: expressed in transfected cells
T1 sequence (Q9Z286 1-469 limits assumed): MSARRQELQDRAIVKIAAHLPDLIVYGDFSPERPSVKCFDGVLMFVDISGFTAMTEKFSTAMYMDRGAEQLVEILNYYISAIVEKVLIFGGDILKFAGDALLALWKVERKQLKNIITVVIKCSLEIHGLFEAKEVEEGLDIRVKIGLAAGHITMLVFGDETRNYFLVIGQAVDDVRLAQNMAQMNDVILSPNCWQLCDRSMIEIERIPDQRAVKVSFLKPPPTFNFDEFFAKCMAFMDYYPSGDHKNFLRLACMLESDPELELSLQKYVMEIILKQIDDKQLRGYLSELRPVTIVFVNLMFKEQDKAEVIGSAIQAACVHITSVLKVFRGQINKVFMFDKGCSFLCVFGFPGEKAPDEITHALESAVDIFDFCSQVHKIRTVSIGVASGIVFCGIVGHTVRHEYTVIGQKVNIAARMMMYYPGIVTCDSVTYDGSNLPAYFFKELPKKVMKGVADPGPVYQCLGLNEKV

SMILES: Cn1cc(Cc2ccccc2OCCN2CCOCC2)c(-c2cc(Cl)nc(N)n2)n1 [TDI-11155]
- Epididymis: Epithelial karyomegaly [1]: 2, MF
- Epididymis: Exfoliated germ cells [1]: 1, MF
- Eyes [1]: N
- Kidneys: Lymphoplasmacytic and histiocytic infiltrates, pelvic [1]: 1, MF
- Kidneys: Tubular basophilia, cortical [1]: 1, F
- Kidneys: Tubular mineralization, papillary [1]: 1, F
- Liver: Extramedullary hematopoiesis, random [1]: 1, MF
- Liver: Lymphoplasmacytic, histiocytic, and neutrophilic hepatitis, midzonal [1]: 1, F
- Liver: Lymphoplasmacytic, histiocytic, and neutrophilic hepatitis, periportal [1]: 2, F
- Pancreas [1]: N
- Spleen [1]: N
- behavioral effects during treatment [1]: no observed behavioral effects
- gross abnormalities in major organs at study termination [1]: no gross abnormalities
- salt precipitation in kidneys [1]: no signs of salt precipitation
- delivered level relative to cellular IC50 ([2]; 7 days): 15 fold
- delivered level relative to cellular IC50 ([2]; 42 days): threefold
- IC50 [3]: 16 nM
